In general, EC50 refers to the concentration that produces a half-maximal response. A higher EC50 goes with lower potency in that assay.

Here are results for 24 compounds from patent US12428403B2, “N-(heterocyclyl and heterocyclylalkyl)-3-benzylpyridin-2-amine derivatives as SSTR4 agonists” (Takeda Pharmaceutical Company Limited, priority 2020, dated 2025).

The target of assay [1] is T1, SSTR4 (Homo sapiens, UniProt P31391). Nature of the assay: cell-based.
The target in assay [2] is SSTR1 (Homo sapiens, UniProt P30872). Nature of the assay: biochemical.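 Further: competitive binding to membranes of CHO-K1 cells overexpressing SSTR1, incubated 60 min at room temperature, radioactivity read by scintillation counting after filtration.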
SSTR1, sequence (P30872 whole entry): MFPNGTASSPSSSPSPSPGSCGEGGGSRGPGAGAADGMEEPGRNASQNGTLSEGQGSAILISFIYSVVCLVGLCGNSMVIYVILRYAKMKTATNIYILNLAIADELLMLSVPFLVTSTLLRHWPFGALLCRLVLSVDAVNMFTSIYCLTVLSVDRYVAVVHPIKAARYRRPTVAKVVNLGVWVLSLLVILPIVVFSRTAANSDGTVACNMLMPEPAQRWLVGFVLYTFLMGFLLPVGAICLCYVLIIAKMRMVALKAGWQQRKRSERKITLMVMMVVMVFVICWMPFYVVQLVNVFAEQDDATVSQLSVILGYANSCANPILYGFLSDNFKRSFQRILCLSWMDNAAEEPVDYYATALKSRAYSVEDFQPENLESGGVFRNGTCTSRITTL
Experimental: SSTR1 I-125 Somatostatin Competition Binding Assay for Selectivity Versus SSTR1
Membranes from CHO-K1 cells overexpressing SSTR1 are purchased from Perkin Elmer (catalog number ES-520-M400UA). Test compounds are suspended in DMSO and then diluted in assay buffer (25 mM HEPES pH 7.4, 10 mM MgCl2, 1 mM CaCl2, 0.5% BSA) plus 0.4 nM I-125 labeled somatostatin (Perkin Elmer catalog number NEX389). […] Then 10 μg of SSTR1 membranes in 50 μL assay buffer are added per well. The plate is incubated for 60 minutes at room temperature. […] The contents of the assay plate are transferred to filters with a TomTech harvester and washed 5 times with 20 mM HEPES, 100 mM NaCl. […] The scintillator sheets are melted to the filters using a heat block. The filters are then read in a MicroBeta scintillation counter. Binding Ki curves are generated using Activity Base for Screening Data Management and the results are reported as pIC50.
The target of assay [3] is T1, SSTR4. Nature of the assay: SSTR4 I-125 somatostatin competition binding assay (CHO-K1 membranes). Particulars: competition with I-125 labeled somatostatin, membranes from CHO-K1 overexpressing SSTR4; read-out: SSTR4 Binding pIC50 (converted). The arrangement: host or cells: CHO-K1. From the text:
SSTR4I-125 Somatostatin Competition Binding Assay
Membranes from CHO-K1 cells overexpressing SSTR4 are purchased from Perkin Elmer (catalog number ES-524-M400UA). […] The scintillator sheets are melted to filters using a heat block.
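Wherever EC50 is given: CHO-K1 cells overexpressing SSTR4, reduction of forskolin-driven cAMP after 30 min compound exposure at room temperature, cAMP read by HTRF LANCE Ultra kit.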

T1 sequence (P31391 whole entry): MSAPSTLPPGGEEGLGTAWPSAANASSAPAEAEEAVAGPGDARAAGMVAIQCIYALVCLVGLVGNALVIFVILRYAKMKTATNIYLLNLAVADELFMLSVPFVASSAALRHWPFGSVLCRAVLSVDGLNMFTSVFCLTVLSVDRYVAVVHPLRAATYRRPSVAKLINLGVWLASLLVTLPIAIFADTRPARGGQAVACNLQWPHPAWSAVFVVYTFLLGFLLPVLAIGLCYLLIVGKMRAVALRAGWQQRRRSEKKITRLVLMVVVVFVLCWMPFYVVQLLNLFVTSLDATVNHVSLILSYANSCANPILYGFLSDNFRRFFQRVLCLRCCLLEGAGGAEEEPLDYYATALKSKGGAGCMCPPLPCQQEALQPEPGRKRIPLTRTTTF

In the case of `CC(c1ccc(F)cc1)c1ncc(C(=O)N(C)C)nc1NCCN1CCCC1` (stereo not drawn) [Example 28], the EC50 in assay [1] was 4.68 nM. Also, the IC50 in assay [2] is 1660 nM; in assay [3], 389 nM.

`CNC(=O)c1nc(Cc2ccc(F)cc2)c(NCCN2CCCC2)nc1C` [Example 44, 6-(4-fluorobenzyl)-N,3-dimethyl-5-((2-(pyrrolidin-1-yl)ethyl)amino)pyrazine-2-carboxamide] showed an EC50 in assay [1] of 4.79 nM. The IC50 in assay [2] is 11700 nM; in assay [3], 67.6 nM.

Take `CO[C@@H]1CCN(C(=O)c2nc(C(C)c3ccc(F)cc3)c(NCCN3CCCC3)nc2C)C1` (stereo partly drawn) [Example 72, (6-(1-(4-fluorophenyl)ethyl)-3-methyl-5-((2-(pyrrolidin-1-yl)ethyl)amino)pyrazin-2-yl)((R)-3-methoxypyrrolidin-1-yl)methanone]: in assay [1], the EC50 was 3.39 nM. The IC50 in assay [2] was 4790 nM; in assay [3], 64.6 nM.

As to `Cc1nc(NCCN2CCCC2)c(C(C)c2ccc(F)cc2)nc1C(=O)NCCF` (stereo not drawn) [Example 51, N-(2-fluoroethyl)-6-(1-(4-fluorophenyl)ethyl)-3-methyl-5-((2-(pyrrolidin-1-yl)ethyl)amino)pyrazine-2-carboxamide], the EC50 in assay [1] was 3.09 nM. Besides, the IC50 is 81.3 nM in assay [2] and 18.2 nM in assay [3].

Consider `Cc1nnc([C@H](C)c2ccccc2)c(NCCN2CCC2)n1` (single isomer, unassigned) [Example 144], for which, in assay [1], a half-maximal response (EC50) required 38 nM. Besides, the IC50 in assay [2] is 18600 nM; in assay [3] it was 603 nM.

In turn, `Cc1nc(NCCN2CCCC2)c(C(C)c2ccc(F)cc2)nc1C(=O)N(C)C1CC1` (stereo not drawn) [Example 65, N-cyclopropyl-6-(1-(4-fluorophenyl)ethyl)-N,3-dimethyl-5-((2-(pyrrolidin-1-yl)ethyl)amino)pyrazine-2-carboxamide] showed an EC50 in assay [1] of 1.62 nM. In addition, the IC50 in assay [2] was 3390 nM; in assay [3], 17 nM.

Turning to `CCN(C)C(=O)c1nc(C(C)c2ccc(F)cc2)c(NCCN2CCCC2)nc1C` (stereo not drawn) [Example 63, N-ethyl-6-(1-(4-fluorophenyl)ethyl)-N,3-dimethyl-5-((2-(pyrrolidin-1-yl)ethyl)amino)pyrazine-2-carboxamide], in assay [1], a half-maximal effect (EC50) was put at 1.35 nM. In addition, the IC50 in assay [2] is 5370 nM; in assay [3], 18.2 nM.

`Cc1cnc(-c2cnc(NCCN3CCCC3)c(C(C)c3ccc(F)cc3)n2)o1` (stereo not drawn) [Example 126, 3-(1-(4-fluorophenyl)ethyl)-5-(5-methyloxazol-2-yl)-N-(2-(pyrrolidin-1-yl)ethyl)pyrazin-2-amine] gave an EC50 in assay [1] of 29.5 nM. Besides, the IC50 was 2630 nM in assay [2] and 110 nM in assay [3].

`Cc1nc(NCCN2CCCC2)c(C(C)c2ccc(F)cc2)nc1C(=O)NC1CC(F)(F)C1` (stereo not drawn) [Example 73, N-(3,3-difluorocyclobutyl)-6-(1-(4-fluorophenyl)ethyl)-3-methyl-5-((2-(pyrrolidin-1-yl)ethyl)amino)pyrazine-2-carboxamide] had an EC50 in assay [1] of 9.77 nM. The results for the IC50 in assay [2] and in assay [3] were 1100 nM and 47.9 nM, respectively.

Turning to `Cc1cccc(Cc2nnc(C)nc2NCCN2CCC2)c1` [Example 148, N-(2-(azetidin-1-yl)ethyl)-3-methyl-6-(3-methylbenzyl)-1,2,4-triazin-5-amine], the EC50 in assay [1] was 10 nM. Besides, the results for the IC50 in assay [2] and in assay [3] were 15100 nM and 42.7 nM, respectively.

In the case of `Cc1nc(NCCN2CCCC2)c(C(C)c2ccc(F)cc2)nc1C(=O)N[C@H]1CCOC1` (stereo partly drawn) [Example 69, 6-(1-(4-fluorophenyl)ethyl)-3-methyl-5-((2-(pyrrolidin-1-yl)ethyl)amino)-N-((S)-tetrahydrofuran-3-yl)pyrazine-2-carboxamide], the EC50 in assay [1] is 8.71 nM. Moreover, the IC50 in assay [2] was 2400 nM; in assay [3], 135 nM.

For the compound `C[C@H](c1ccc(F)cc1)c1nc(C(=O)N(C)C2CC2)cnc1NCCN1CCCC1` [Example 17, (R)-N-cyclopropyl-6-(1-(4-fluorophenyl)ethyl)-N-methyl-5-((2-(pyrrolidin-1-yl)ethyl)amino)pyrazine-2-carboxamide], the EC50 in assay [1] was 11.7 nM. Further, the IC50 in assay [2] was 7940 nM; in assay [3], 162 nM.

In assay [1], `Cc1nnc(C(C)c2ccccc2)c(NCCN2CCC2)n1` (stereo not drawn) [Example 143, N-(2-(azetidin-1-yl)ethyl)-3-methyl-6-(1-phenylethyl)-1,2,4-triazin-5-amine] showed an EC50 of 4.27 nM. The IC50 is 10000 nM in assay [2] and 49 nM in assay [3].

As to `Cc1cccc(Cc2ncc(C(C)C)nc2NCCN2CCC2)c1` [Example 87, N-(2-(azetidin-1-yl)ethyl)-6-isopropyl-3-(3-methylbenzyl)pyrazin-2-amine], the midpoint of the response in assay [1], the EC50, lay at 5.01 nM. In addition, the IC50 was 3720 nM in assay [2] and 10.5 nM in assay [3].

With `Cc1nnc([C@H](C)c2ccc(F)cc2)c(N[C@@H]2CCN(C)C2)n1` (single isomer, unassigned) [Example 141], the response in assay [1] was half-maximal at 21.4 nM (EC50). Besides, the figures for the IC50 in assay [2] and in assay [3] were 25700 nM and 93.3 nM, respectively.

With `C[C@H](c1ccc(F)cc1)c1nc(C(=O)NC2CCC2)cnc1NCCN1CCCC1` [Example 9, (R)-N-cyclobutyl-6-(1-(4-fluorophenyl)ethyl)-5-((2-(pyrrolidin-1-yl)ethyl)amino)pyrazine-2-carboxamide], the half-maximal effective concentration (EC50) in assay [1] is 81.3 nM.

In the case of `Cc1cccc2nc(Cc3ccccc3)c(NCCN3CCC3)nc12` (single isomer, unassigned) [Example 2, N-(2-(azetidin-1-yl)ethyl)-3-benzyl-8-methylquinoxalin-2-amine], in assay [1], the EC50 is 67.6 nM.

Consider `CNC(=O)c1cnc(N[C@@H]2CCN(C)C2)c([C@@H](C)c2ccc(F)cc2)n1` (single isomer, unassigned) [Example 34], for which, in assay [1], a half-maximal response (EC50) required 537 nM.

Consider `CCc1nnc(Cc2cccc(C)c2)c(NCCN2CCC2)n1` [Example 130, N-(2-(azetidin-1-yl)ethyl)-3-ethyl-6-(3-methylbenzyl)-1,2,4-triazin-5-amine], for which the EC50 in assay [1] was 7.94 nM.

Compound `Cc1nc(NCCN2CCCC2)c(C(C)c2ccc(F)cc2)nc1C(=O)O` (stereo not drawn) [Example 55] showed an EC50 in assay [1] of 13.8 nM.

As for `CO[C@H]1C[C@@H](NC(=O)c2nc(C(C)c3ccc(F)cc3)c(NCCN3CCCC3)nc2C)C1` (stereo partly drawn) [Example 56, 6-(1-(4-fluorophenyl)ethyl)-N-(cis-3-methoxycyclobutyl)-3-methyl-5-((2-(pyrrolidin-1-yl)ethyl)amino)pyrazine-2-carboxamide], it took 7.59 nM to reach a half-maximal effect in assay [1] (EC50).

Consider `CC1CN(C)CCC1Nc1ncc(C(F)(F)F)nc1Cc1ccc(F)cc1` (mixture of isomers) [Example 91, N-(1,3-dimethylpiperidin-4-yl)-3-(4-fluorobenzyl)-5-(trifluoromethyl)pyrazin-2-amine], for which it took 661 nM to reach a half-maximal effect in assay [1] (EC50).

As to `Cc1cccc(Cc2nc(C)c(C)nc2NC2CCN(C)CC2)c1` [Example 82, 5,6-dimethyl-3-(3-methylbenzyl)-N-(1-methylpiperidin-4-yl)pyrazin-2-amine], the EC50 in assay [1] was 107 nM.

`CN1CCCC1CNc1nccnc1Cc1ccc(F)cc1` (stereo not drawn) [Example 109, 3-(4-fluorobenzyl)-N-((1-methylpyrrolidin-2-yl)methyl)pyrazin-2-amine] had an EC50 in assay [1] of 501 nM.
